# pIC50: −log10 of the molar value. Like-named read-outs stand apart in the source and are kept apart here.
# Legend:
# [1] = target: T1, ETB receptors of porcine cerebellar tissues (pET-B) (Sus scrofa, UniProt P35463); assay: ETA/ETB selectivity: (125I)ET-3 competition binding, ETB assay in porcine cerebellum membranes (pET-B)
# T1 construct: porcine cerebellar tissues (known to contain ETB receptors); from tissue; host or cells: porcine cerebellum (membranes)
# T1 sequence (P35463 27-443): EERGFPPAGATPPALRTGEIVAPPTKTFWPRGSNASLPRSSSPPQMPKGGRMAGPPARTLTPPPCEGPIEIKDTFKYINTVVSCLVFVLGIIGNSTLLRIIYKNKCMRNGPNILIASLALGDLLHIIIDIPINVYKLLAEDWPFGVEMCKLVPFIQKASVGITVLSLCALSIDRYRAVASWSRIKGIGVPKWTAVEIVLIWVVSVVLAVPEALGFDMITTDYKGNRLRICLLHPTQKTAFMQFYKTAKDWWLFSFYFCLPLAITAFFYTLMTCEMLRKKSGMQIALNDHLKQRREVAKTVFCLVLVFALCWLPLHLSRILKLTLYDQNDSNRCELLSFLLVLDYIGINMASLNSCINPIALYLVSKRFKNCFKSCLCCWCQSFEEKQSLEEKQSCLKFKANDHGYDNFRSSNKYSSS
# Experimental: (§1) The mixture was centrifuged at 1000×g for 10 min. The supernatant was collected and centrifuged at 60,000×g for 60 min. The precipitate was resuspended in 20 mM Tris, pH 7.4 containing protease inhibitor and centrifuged again. The final membrane pellet was resuspended in 20 mM Tris, pH 7.4 containing protease inhibitors and stored at −80° C. until used. Protein content was determined by the Bio-Rad dye-binding protein assay.
# (§2) Binding assays were performed in 96-well microtiter plates pretreated with 0.1% BSA. […] After incubation, unbound ligands were separated from bound ligands by a vacuum filtration method using glass-fiber filter strips in PHD cell harvesters (Cambridge Technology, Inc., MA), washing the filter strips three times with saline (1 mL). Nonspecific binding was determined in the presence of 1 μM ET-1. IC50 values are calculated using an average of at least two separate determinations.
# [2] = target: T2, human ETA receptor (Homo sapiens, UniProt P25101); assay: ETA/ETB selectivity: (125I)ET-1 competition binding, CHO cells transfected with human ETA receptor (hET-A)
# T2 construct: expressed in transfected cells; host or cells: CHO cells, permanently transfected
# T2 sequence (P25101 21-427): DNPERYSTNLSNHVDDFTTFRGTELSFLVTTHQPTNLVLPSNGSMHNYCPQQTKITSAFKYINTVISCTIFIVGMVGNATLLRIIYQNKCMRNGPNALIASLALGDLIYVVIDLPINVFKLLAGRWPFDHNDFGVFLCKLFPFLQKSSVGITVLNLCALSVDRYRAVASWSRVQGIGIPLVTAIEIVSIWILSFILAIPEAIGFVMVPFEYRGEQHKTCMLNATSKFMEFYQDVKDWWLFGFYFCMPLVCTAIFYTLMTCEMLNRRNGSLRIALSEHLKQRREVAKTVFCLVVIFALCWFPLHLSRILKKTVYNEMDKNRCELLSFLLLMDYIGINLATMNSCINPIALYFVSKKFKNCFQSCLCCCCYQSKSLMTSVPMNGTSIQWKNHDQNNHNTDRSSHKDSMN
# Experimental: as §1, §2
# [3] = target: T3, ETA Receptor (Rattus norvegicus, UniProt P26684); assay: [125I]ET-1 binding to membranes from MMQ cells (ETA receptor binding assay, Table 4); details: for inhibition at 1 µM: read-out: % Inhibition of ETA at 1 μM
# T3 construct: endogenous in cells; host or cells: MMQ rat pituitary cells (membranes)
# T3 sequence (P26684 21-426): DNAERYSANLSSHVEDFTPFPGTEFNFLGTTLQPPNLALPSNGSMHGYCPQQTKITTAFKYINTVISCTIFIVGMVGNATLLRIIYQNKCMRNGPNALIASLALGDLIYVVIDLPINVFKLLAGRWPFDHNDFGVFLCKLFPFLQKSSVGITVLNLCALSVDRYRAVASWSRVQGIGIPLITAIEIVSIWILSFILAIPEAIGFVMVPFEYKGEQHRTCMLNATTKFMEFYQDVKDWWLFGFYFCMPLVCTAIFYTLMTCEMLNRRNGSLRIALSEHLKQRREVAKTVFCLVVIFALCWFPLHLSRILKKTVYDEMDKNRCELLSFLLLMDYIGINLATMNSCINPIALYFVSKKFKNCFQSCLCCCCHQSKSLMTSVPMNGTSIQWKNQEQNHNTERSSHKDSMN
# [4] = target: T4, ETA receptor in MMQ cells (rET-A) (Rattus norvegicus, UniProt P26684); assay: ETA/ETB selectivity: (125I)ET-1 competition binding, ETA assay in MMQ cell membranes (rET-A)
# T4 construct: endogenous in cells; host or cells: MMQ rat pituitary cells (membranes)
# T4 sequence (P26684 21-426): T3 sequence (P26684 21-426)
# Experimental: as §1, §2
# [5] = target: T5, human ETB receptor (Homo sapiens, UniProt P24530); assay: ETA/ETB selectivity: (125I)ET-3 competition binding, CHO cells transfected with human ETB receptor (hET-B); details: CHO cells transfected with human ETB receptor; 0.1 nM (125I)ET-3; read-out: hET-B IC50
# T5 construct: expressed in transfected cells; host or cells: CHO cells, permanently transfected
# T5 sequence (P24530 27-442): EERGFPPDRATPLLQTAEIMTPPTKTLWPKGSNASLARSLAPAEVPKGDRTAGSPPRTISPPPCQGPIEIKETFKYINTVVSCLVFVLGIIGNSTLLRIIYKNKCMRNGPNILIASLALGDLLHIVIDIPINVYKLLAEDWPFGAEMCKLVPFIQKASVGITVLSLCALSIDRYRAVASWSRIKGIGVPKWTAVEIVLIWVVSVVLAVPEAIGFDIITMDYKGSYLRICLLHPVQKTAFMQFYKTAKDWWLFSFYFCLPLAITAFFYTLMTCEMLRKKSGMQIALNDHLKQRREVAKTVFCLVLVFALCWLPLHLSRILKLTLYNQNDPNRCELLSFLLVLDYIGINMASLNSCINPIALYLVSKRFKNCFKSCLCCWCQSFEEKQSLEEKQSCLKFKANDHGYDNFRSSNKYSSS
# Experimental: MMQ cells, porcine cerebellar tissues (known to contain ETB receptors) and chinese hamster ovary cells (CHO) permanently transfected with the human ETA or ETB receptor were homogenized in 25 ml of 10 mM Hepes (pH 7.4) containing 0.25 M sucrose and a protease inhibitor [50 mM EDTA, 0.1 mM PMSF, 5 μg/ml Pepstatin A, and 0.025% Bacitracin] using a micro ultrasonic cell disrupter. The mixture was centrifuged at 1000×g for 10 min. The supernatant was collected and centrifuged at 60,000×g for 60 min. The precipitate was resuspended in 20 mM Tris, pH 7.4 containing protease inhibitor and centrifuged again. The final membrane pellet was resuspended in 20 mM Tris, pH 7.4 containing protease inhibitors and stored at −80° C. until used. Protein content was determined by the Bio-Rad dye-binding protein assay.
# Binding assays were performed in 96-well microtiter plates pretreated with 0.1% BSA. Membranes prepared from cells were diluted 100 fold in Buffer B (20 mM Tris, 100 mM NaCl, 10 mM MgCl2, pH 7.4, with 0.2% BSA, 0.1 mM PMSF, 5 μg/mL Pepstatin A, 0.025% bacitracin, and 50 mM EDTA) to a final concentration of 0.2 mg/mL of protein. In competition binding studies, membranes (0.02 mg) were incubated with 0.1 nM of (^125I)ET-1 (for ETA assay in MMQ or CHO cells transfected with human ETA receptor) or (^125I)ET-3 (for ETB assay in porcine cerebellum or CHO cells transfected with human ETB receptor) in Buffer B (final volume: 0.2 mL) in the presence of increasing concentrations of the test compound for 3 hours at 25° C. After incubation, unbound ligands were separated from bound ligands by a vacuum filtration method using glass-fiber filter strips in PHD cell harvesters (Cambridge Technology, Inc., MA), washing the filter strips three times with saline (1 mL). Nonspecific binding was determined in the presence of 1 μM ET-1. IC50 values are calculated using an average of at least two separate determinations.
# [6] = test system: ET-1-induced phosphatidylinositol hydrolysis in MMQ cells; assay: Determination of ET-1-induced phosphatidylinositol (PI) hydrolysis in MMQ cells; assay type: cell-based, rat; details: 1 nM ET-1 challenge, read-out: IC50 (inhibition of ET-induced increase in PI turnover)
# Experimental: MMQ cells (0.4×10^6 cells/mL) were labeled with 10 μCi/mL of [^3H]myo-inositol in RPMI for 16 hours. The cells were washed with PBS, then incubated with Buffer A containing protease inhibitors and 10 mM LiCl for 60 minutes. The cells were then incubated with test compounds for 5 minutes, and then challenged with 1 nM ET-1. ET-1 challenge was terminated by the addition of 1.5 mL of 1:2 (v/v) chloroform-methanol. Total inositol phosphates were extracted after adding chloroform and water to give final proportions of 1:1:0.9 (v/v/v) chloroform-methanol-water as described by Berridge (Biochem. J. 206 587–595 (1982)). The upper aqueous phase (1 mL) was retained and a small portion (100 μL) was counted. The rest of the aqueous sample was analyzed by batch chromatography using anion-exchange resin AG1-X8 (Bio-Rad). […] The results of the above study clearly indicate that the compounds act as functional ET antagonists.
# [7] = CHO cells transfected with human ETA receptor, 0.1 nM (125I)ET-1, read-out: hET-A IC50
# [8] = test compound at 1 μM, 0.1 nM [125I]ET-1, MMQ cell membranes, 4 hours at 25° C.
# [9] = MMQ cell membranes, 0.1 nM (125I)ET-1, read-out: rET-A IC50
SMILES,"pIC50 [2, 7]",pIC50 [5],pIC50 [6],"% Inhibition of ETA at 1 μM [3, 8] [%]",also measured
CCCCN(CCCC)C(=O)CN1CC(c2ccc3c(c2)OCO3)C(C(=O)O)C1CCc1ccccn1 (centres unmarked) [compound 519],9.64,4.72,,,pIC50 [1]: 4.85; inhibition at 1 µM [3]: 99.1%; pIC50 [4]: 9.42
"CCCCN(C)C(=O)CN1CC(c2ccc3c(c2)OCO3)C(C(=O)O)C1c1ccc(OC)cc1 (stereo not drawn) [Example 30, trans,trans-2-(4-Methoxyphenyl)-4-(1,3-benzodioxol-5-yl)-1-(N-methyl-N-butylaminocarbonylmethyl)-pyrrolidine-3-carboxylic acid]",,,9.00,80.0,
CCCCN(CCCN)C(=O)CN1CC(c2ccc3c(c2)OCO3)C(C(=O)O)C1c1ccc(OC)cc1 (centres unmarked) [compound 526],7.77,5.13,,,"inhibition at 1 µM [3, 8]: 100%; pIC50 [4, 9]: 7.38"
"CCCCN(C(=O)CN1CC(c2ccc3c(c2)OCO3)C(C(=O)O)C1c1ccc(OC)cc1)c1ccccc1 (stereo not drawn) [Example 291, trans,trans-2-(4-Methoxyphenyl)-4-(1,3-benzodioxol-5-yl)-1-(N-butyl-N-phenylaminocarbonylmethyl)-pyrrolidine-3-carboxylic acid]",,,8.01,100.0,
"COc1ccc(C2C(C(=O)O)C(c3ccc4c(c3)OCO4)CN2CC(=O)NC2CCCC2)cc1 (stereo not drawn) [Example 19, trans,trans-2-(4-Methoxyphenyl)-4-(1,3-benzodioxol-5-yl)-1-(cyclopentylaminocarbonylmethyl)-pyrrolidine-3-carboxylic acid]",,,7.62,90.3,
"CCCNC(=O)CN1CC(c2ccc3c(c2)OCO3)C(C(=O)O)C1c1ccc(OC)cc1 (stereo not drawn) [Example 1D, trans,trans-2-(4-Methoxyphenyl)-4-(1,3-benzodioxol-5-yl)-1-(propylaminocarbonylmethyl)-pyrrolidine-3-carboxylic acid]",,,7.60,96.4,
"CCCCN(C)C(=O)CN1CC(c2ccc3c(c2)OCO3)C(C(=O)O)C1c1ccc(OC)cc1OCOC (stereo not drawn) [Example 31B, trans,trans-2-(4-Methoxy-2-methoxymethoxyphenyl)-4-(1,3-benzodioxol-5-yl)-1-(N-methyl-N-butylaminocarbonylmethyl)-pyrrolidine-3-carboxylic acid]",,,8.70,93.6,
"CCCN(C)C(=O)CN1CC(c2ccc3c(c2)OCO3)C(C(=O)O)C1c1ccc(OC)cc1 (stereo not drawn) [Example 16, trans,trans-2-(4-Methoxyphenyl)-4-(1,3-benzodioxol-5-yl)-1-(N-(n-propyl)-N-methylaminocarbonylmethyl)-pyrrolidine-3-carboxylic acid]",,,8.05,96.0,
"CCCN(CCC)C(=O)CN1CC(c2ccc3c(c2)OCO3)C(C(=O)O)C1c1ccc(OC)cc1 (stereo not drawn) [Example 47, trans,trans-2-(4-Methoxyphenyl)-4-(1,3-benzodioxol-5-yl)-1-(N,N-di(n-propyl)aminocarbonylmethyl)-pyrrolidine-3-carboxylic acid]",,,9.30,95.1,
CCCCN(CCCC)C(=O)CN1CC(c2ccc3c(c2)OCO3)C(C(=O)O)C1CCN1CCCC1=O (centres unmarked) [compound 512],9.24,≤ 4.22,,,"pIC50 ([1]; porcine cerebellum membranes, 0.1 nM (125I)ET-3, read-out: pET-B IC50): < 4.10; inhibition at 1 µM [3, 8]: 98.9%; pIC50 [4]: 9.38"
CC=CC(C)(C)CC1C(C(=O)O)C(c2ccc3c(c2)OCO3)CN1CC(=O)N(CCCC)CCCC (centres unmarked) [compound 552],,< 4.02,,,"pIC50 [2]: 9.00; inhibition at 1 µM ([4]; 1 μM test compound, MMQ cell membranes): 97.3%"
CCCC(CCC)N(C(=O)CN1C[C@H](c2ccc3c(c2)OCO3)[C@@H](C(=O)O)[C@@H]1CC(C)(C)CCC)c1ccc(F)c(C)c1 [compound 511],9.22,4.82,,,"inhibition at 1 µM [3, 8]: 99.2%; pIC50 [4, 9]: 9.09"
